Read-outs that look alike come from different tables or passages of the source.
Columns and labels:
[1] = target: BTK (Homo sapiens, UniProt Q06187); assay: Degradation of BTK protein in Namalwa cells (Western blot; DC50, Dmax); conditions: for DC50: read-out: DC50 (BTK degradation), concentration giving 50% reduction of BTK expression level; for Dmax: read-out: Dmax (BTK degradation)
[2] = system: JeKo-1 cells; assay: Antiproliferative effect, MTS cell viability assay, JeKo-1 cells; format: cell-based; conditions: JeKo-1 mantle cell lymphoma cells, read-out: IC50 (anti-proliferation) JeKO-1 cells
Method in brief: (§1)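 Tested at six concentrations (0 to 10 μM in tenfold steps), 72 h; viability by MTS, A490.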

[3] = system: Mino cells; assay: Antiproliferative effect, MTS cell viability assay, Mino cells; format: cell-based; conditions: Mino mantle cell lymphoma cells, read-out: IC50 (anti-proliferation) Mino cells
Method in brief: as §1

Chain of BTK (Q06187 whole entry): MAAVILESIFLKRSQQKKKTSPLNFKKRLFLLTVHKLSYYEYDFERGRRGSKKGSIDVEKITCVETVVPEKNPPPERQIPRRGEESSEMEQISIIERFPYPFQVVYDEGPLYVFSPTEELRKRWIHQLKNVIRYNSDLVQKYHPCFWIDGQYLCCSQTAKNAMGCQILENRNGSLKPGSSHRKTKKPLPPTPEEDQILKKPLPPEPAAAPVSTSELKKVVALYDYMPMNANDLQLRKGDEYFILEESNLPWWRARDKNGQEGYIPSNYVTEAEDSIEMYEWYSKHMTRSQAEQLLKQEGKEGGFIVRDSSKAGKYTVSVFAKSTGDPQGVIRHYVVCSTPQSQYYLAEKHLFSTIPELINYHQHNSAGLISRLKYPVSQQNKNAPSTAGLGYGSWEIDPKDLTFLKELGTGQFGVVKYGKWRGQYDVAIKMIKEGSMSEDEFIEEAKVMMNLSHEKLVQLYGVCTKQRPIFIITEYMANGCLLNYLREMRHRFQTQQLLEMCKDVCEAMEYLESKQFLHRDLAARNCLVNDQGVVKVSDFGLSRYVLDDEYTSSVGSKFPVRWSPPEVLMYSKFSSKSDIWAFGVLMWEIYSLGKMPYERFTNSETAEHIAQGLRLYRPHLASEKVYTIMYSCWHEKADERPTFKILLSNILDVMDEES

Row | Structure (SMILES) | DC50 ([1]; cell line not given) [µM] | Dmax [1] [%] | IC50 ([2]; Homo sapiens) [µM] | IC50 ([3]; Homo sapiens, MINO) [µM] | Dmax (BTK degradation) ([1]; cell line not given) | IC50 [2] [µM] | IC50 [3] [µM]
1 | NC1=NC=NC2C1C(c1ccc(Oc3ccccc3)cc1)=NN2C1CCN(C2CN(C(=O)N3CC(C4CN(c5ccc6c(c5)C(=O)N(C5CCC(=O)NC5=O)C6=O)C4)C3)C2)CC1 (stereo not drawn) [Compound 499, 5-(1′-(3-(4-(4-amino-3-(4-phenoxyphenyl)-3a,7a-dihydro-1H-pyrazolo[3,4-d]pyrimidin-1-yl)piperidin-1-yl)azetidine-1-carbonyl)-[3,3′-biazetidin]-1-yl)-2-(2,6-dioxopiperidin-3-yl)isoindoline-1,3-dione] | 0.01 to 0.05 | > 75 | 1 to 10 | < 1 | – | – | –
2 | NC1=NC=NC2C1C(c1ccc(Oc3ccccc3)cc1)=NN2C1CCN(C2CN(C(=O)N3CC(C4CN(c5ccc6c(c5)CN(C5CCC(=O)NC5=O)C6=O)C4)C3)C2)CC1 (stereo not drawn) [Compound 500, 3-(5-(1′-(3-(4-(4-amino-3-(4-phenoxyphenyl)-3a,7a-dihydro-1H-pyrazolo[3,4-d]pyrimidin-1-yl)piperidin-1-yl)azetidine-1-carbonyl)-[3,3′-biazetidin]-1-yl)-1-oxoisoindolin-2-yl)piperidine-2,6-dione] | 0.01 to 0.05 | > 90 | 1 to 10 | < 1 | – | – | –
3 | NC1=NC=NC2C1C(c1ccc(Oc3ccccc3)cc1)=NN2C1CCCN(C2CN(C(=O)N3CC(C4CN(c5ccc6c(c5)C(=O)N(C5CCC(=O)NC5=O)C6=O)C4)C3)C2)C1 (stereo not drawn) [Compound 501] | 0.01 to 0.05 | > 90 | < 1 | 1 to 10 | – | – | –
4 | NC1=NC=NC2C1C(c1ccc(Oc3ccccc3)cc1)=NN2C1CCCN(C2CN(C(=O)N3CC(C4CN(c5ccc6c(c5)CN(C5CCC(=O)NC5=O)C6=O)C4)C3)C2)C1 (stereo not drawn) [Compound 502] | 0.01 to 0.05 | > 90 | < 1 | < 1 | – | – | –
5 | NC1=NC=NC2C1C(c1ccc(Oc3ccccc3)cc1)=NN2C1CCN(C(=O)N2CCN(C3CN(c4ccc5c(c4)C(=O)N(C4CCC(=O)NC4=O)C5=O)C3)CC2)CC1 (stereo not drawn) [Compound 503, 5-(3-(4-(4-(4-amino-3-(4-phenoxyphenyl)-3a,7a-dihydro-1H-pyrazolo[3,4-d]pyrimidin-1-yl)piperidine-1-carbonyl)piperazin-1-yl)azetidin-1-yl)-2-(2,6-dioxopiperidin-3-yl)isoindoline-1,3-dione] | 0.01 to 0.05 | > 75 | < 1 | < 1 | – | – | –
6 | NC1=NC=NC2C1C(c1ccc(Oc3ccccc3)cc1)=NN2C1CCN(C(=O)N2CCN(C3CN(c4ccc5c(c4)CN(C4CCC(=O)NC4=O)C5=O)C3)CC2)CC1 (stereo not drawn) [Compound 504, 3-(5-(3-(4-(4-(4-amino-3-(4-phenoxyphenyl)-3a,7a-dihydro-1H-pyrazolo[3,4-d]pyrimidin-1-yl)piperidine-1-carbonyl)piperazin-1-yl)azetidin-1-yl)-1-oxoisoindolin-2-yl)piperidine-2,6-dione] | < 0.01 | > 90 | < 1 | < 1 | – | – | –
7 | NC1=NC=NC2C1C(c1ccc(Oc3ccccc3)cc1)=NN2[C@@H]1CCCN(C(=O)N2CCN(C3CN(c4ccc5c(c4)C(=O)N(C4CCC(=O)NC4=O)C5=O)C3)CC2)C1 (stereo partly drawn) [Compound 505, 5-(3-(4-((3R)-3-(4-amino-3-(4-phenoxyphenyl)-3a,7a-dihydro-1H-pyrazolo[3,4-d]pyrimidin-1-yl)piperidine-1-carbonyl)piperazin-1-yl)azetidin-1-yl)-2-(2,6-dioxopiperidin-3-yl)isoindoline-1,3-dione] | 0.01 to 0.05 | > 75 | < 1 | < 1 | – | – | –
8 | NC1=NC=NC2C1C(c1ccc(Oc3ccccc3)cc1)=NN2[C@@H]1CCCN(C(=O)N2CCN(C3CN(c4ccc5c(c4)CN(C4CCC(=O)NC4=O)C5=O)C3)CC2)C1 (stereo partly drawn) [Compound 506, 3-(5-(3-(4-((3R)-3-(4-amino-3-(4-phenoxyphenyl)-3a,7a-dihydro-1H-pyrazolo[3,4-d]pyrimidin-1-yl)piperidine-1-carbonyl)piperazin-1-yl)azetidin-1-yl)-1-oxoisoindolin-2-yl)piperidine-2,6-dione] | 0.01 to 0.05 | > 90 | < 1 | < 1 | – | – | –
9 | Nc1ncnc2c1c(-c1ccc(Oc3ccccc3)cc1)nn2C1CCN(C(=O)C2CC(N3CCN(c4ccc5c(c4)C(=O)N(C4CCC(=O)NC4=O)C5=O)CC3)C2)CC1 (stereo not drawn) [Compound 507, 5-(4-(3-(4-(4-amino-3-(4-phenoxyphenyl)-1H-pyrazolo[3,4-d]pyrimidin-1-yl)piperidine-1-carbonyl)cyclobutyl)piperazin-1-yl)-2-(2,6-dioxopiperidin-3-yl)isoindoline-1,3-dione] | < 0.01 | > 90 | < 1 | < 1 | – | – | –
10 | Nc1ncnc2c1c(-c1ccc(Oc3ccccc3)cc1)nn2C1CCN(C(=O)C2CC(N3CCN(c4ccc5c(c4)CN(C4CCC(=O)NC4=O)C5=O)CC3)C2)CC1 (stereo not drawn) [Compound 508, 3-(5-(4-(3-(4-(4-amino-3-(4-phenoxyphenyl)-1H-pyrazolo[3,4-d]pyrimidin-1-yl)piperidine-1-carbonyl)cyclobutyl)piperazin-1-yl)-1-oxoisoindolin-2-yl)piperidine-2,6-dione] | < 0.01 | > 90 | < 1 | < 1 | – | – | –
11 | Nc1ncnc2c1c(-c1ccc(Oc3ccccc3)cc1)nn2C1CCN(C(=O)C2CN(C3CCN(c4ccc5c(c4)C(=O)N(C4CCC(=O)NC4=O)C5=O)CC3)C2)CC1 (stereo not drawn) [Compound 509, 5-(4-(3-(4-(4-amino-3-(4-phenoxyphenyl)-1H-pyrazolo[3,4-d]pyrimidin-1-yl)piperidine-1-carbonyl)azetidin-1-yl)piperidin-1-yl)-2-(2,6-dioxopiperidin-3-yl)isoindoline-1,3-dione] | < 0.01 | > 90 | < 1 | < 1 | – | – | –
12 | Nc1ncnc2c1c(-c1ccc(Oc3ccccc3)cc1)nn2C1CCN(C(=O)C2CN(C3CCN(c4ccc5c(c4)CN(C4CCC(=O)NC4=O)C5=O)CC3)C2)CC1 (stereo not drawn) [Compound 510, 3-(5-(4-(3-(4-(4-amino-3-(4-phenoxyphenyl)-1H-pyrazolo[3,4-d]pyrimidin-1-yl)piperidine-1-carbonyl)azetidin-1-yl)piperidin-1-yl)-1-oxoisoindolin-2-yl)piperidine-2,6-dione] | < 0.01 | > 90 | < 1 | < 1 | – | – | –
13 | Nc1ncnc2c1c(-c1ccc(Oc3ccccc3)cc1)nn2C1CCC(C(=O)N2CC(N3CCN(c4ccc5c(c4)C(=O)N(C4CCC(=O)NC4=O)C5=O)CC3)C2)CC1 (stereo not drawn) [Compound 511, 5-(4-(1-(4-(4-amino-3-(4-phenoxyphenyl)-1H-pyrazolo[3,4-d]pyrimidin-1-yl)cyclohexane-1-carbonyl)-152-zetidine-3-yl)piperazin-1-yl)-2-(2,6-dioxopiperidin-3-yl)isoindoline-1,3-dione] | < 0.01 | – | – | – | A (A >90%) | < 1 | < 1
14 | Nc1ncnc2c1c(-c1ccc(Oc3ccccc3)cc1)nn2C1CCC(C(=O)N2CC(N3CCN(c4ccc5c(c4)CN(C4CCC(=O)NC4=O)C5=O)CC3)C2)CC1 (stereo not drawn) [Compound 512, 3-(5-(4-(1-(4-(4-amino-3-(4-phenoxyphenyl)-1H-pyrazolo[3,4-d]pyrimidin-1-yl)cyclohexane-1-carbonyl)azetidin-3-yl)piperazin-1-yl)-1-oxoisoindolin-2-yl)piperidine-2,6-dione] | < 0.01 | > 90 | < 1 | < 1 | – | – | –
15 | Nc1ncnc2c1c(-c1ccc(Oc3ccccc3)cc1)nn2C1CCC(C(=O)N2CC(C3CCN(c4ccc5c(c4)C(=O)N(C4CCC(=O)NC4=O)C5=O)CC3)C2)CC1 (stereo not drawn) [Compound 513, 5-(4-(1-(4-(4-amino-3-(4-phenoxyphenyl)-1H-pyrazolo[3,4-d]pyrimidin-1-yl)cyclohexane-1-carbonyl)azetidin-3-yl)piperidin-1-yl)-2-(2,6-dioxopiperidin-3-yl)isoindoline-1,3-dione] | < 0.01 | > 90 | < 1 | < 1 | – | – | –
16 | Nc1ncnc2c1c(-c1ccc(Oc3ccccc3)cc1)nn2C1CCC(C(=O)N2CC(C3CCN(c4ccc5c(c4)CN(C4CCC(=O)NC4=O)C5=O)CC3)C2)CC1 (stereo not drawn) [Compound 514, 3-(5-(4-(1-(4-(4-amino-3-(4-phenoxyphenyl)-1H-pyrazolo[3,4-d]pyrimidin-1-yl)cyclohexane-1-carbonyl)azetidin-3-yl)piperidin-1-yl)-1-oxoisoindolin-2-yl)piperidine-2,6-dione] | < 0.01 | > 90 | < 1 | < 1 | – | – | –
17 | Nc1ncnc2c1c(-c1ccc(Oc3ccccc3)cc1)nn2[C@@H]1CCCN(CC2CCN(CC3CCN(c4ccc(C(=O)NC5CCC(=O)NC5=O)cc4)CC3)CC2)C1 (stereo partly drawn) [Compound 515, 4-(4-((4-(((R)-3-(4-amino-3-(4-phenoxyphenyl)-1H-pyrazolo[3,4-d]pyrimidin-1-yl)piperidin-1-yl)methyl)piperidin-1-yl)methyl)piperidin-1-yl)-N-(2,6-dioxopiperidin-3-yl)benzamide] | < 0.01 | > 90 | 1 to 10 | < 1 | – | – | –
18 | Nc1ncnc2c1c(-c1ccc(Oc3ccccc3)cc1)nn2[C@@H]1CCCN(C2CCN(CC3CCN(c4ccc(C(=O)NC5CCC(=O)NC5=O)cc4)CC3)CC2)C1 (stereo partly drawn) [Compound 516, 4-(4-(((R)-3-(4-amino-3-(4-phenoxyphenyl)-1H-pyrazolo[3,4-d]pyrimidin-1-yl)-[1,4′-bipiperidin]-1′-yl)methyl)piperidin-1-yl)-N-(2,6-dioxopiperidin-3-yl)benzamide] | < 0.01 | > 75 | < 1 | 1 to 10 | – | – | –
